ChEMBL document CHEMBL5247667, “Design, synthesis and characterizations of prodrugs of brexanolone” (Bioorg Med Chem Lett, 2023)

Key:
[1] = Metabolic stability in human liver S9 fraction assessed as half life at 1 uM incubated for 60 min by LC-MS/MS method; assay type: ADME, subcellular
[2] = Metabolic stability in human plasma assessed as half life at 1 uM incubated for 60 min by LC-MS/MS method; assay type: ADME, cell-free
[3] = Metabolic stability in Sprague-Dawley rat plasma assessed as half life at 1 uM incubated for 60 min by LC-MS/MS method; assay type: ADME, cell-free
[4] = Metabolic stability in beagle dog plasma assessed as half life at 1 uM incubated for 60 min by LC-MS/MS method; assay type: ADME, cell-free, Canis lupus familiaris
[5] = Metabolic stability in beagle dog liver S9 fraction assessed as half life at 1 uM incubated for 60 min by LC-MS/MS method; assay type: ADME, subcellular, Canis lupus familiaris
[6] = AUClast in Sprague-Dawley rat assessed as BXN at 5 mg/kg, IM administered for 30 mins measured after 24 hrs post dose by LC-MS/MS analysis; assay type: ADME, organism-based; set-up: time 24.5 hrs, dose 5 mg/kg, route im; settings: in vivo, 24.5 h
[7] = Cmax in Sprague-Dawley rat at 5 mg/kg, IM administered for 30 mins measured after 24 hrs post dose by LC-MS/MS analysis; assay type: ADME, organism-based; set-up: time 24.5 hrs, dose 5 mg/kg, route im; settings: in vivo
[8] = AUClast in Sprague-Dawley rat at 5 mg/kg, IM administered for 30 mins measured after 24 hrs post dose by LC-MS/MS analysis; assay type: ADME, organism-based; set-up: time 24.5 hrs, dose 5 mg/kg, route im; settings: in vivo
[9] = Prodrug conversion in beagle dog assessed as ratio of AUC for compound to BXN at 5 mg/kg,IM and measured after 60 mins by LC-MS/MS analysis; assay type: ADME, organism-based, Canis lupus familiaris; settings: in vivo, 1 h
[10] = Half life in Sprague-Dawley rat at 5 mg/kg, IM administered for 30 mins measured after 24 hrs post dose by LC-MS/MS analysis; assay type: ADME, organism-based; settings: in vivo, time 24.5 hrs
[11] = Cmax in Sprague-Dawley rat assessed as BXN at 5 mg/kg, IM administered for 30 mins measured after 24 hrs post dose by LC-MS/MS analysis; assay type: ADME, organism-based; set-up: time 24.5 hrs, dose 5 mg/kg, route im; settings: in vivo, 24.5 h
[12] = Metabolic stability in Sprague-Dawley rat liver S9 fraction assessed as half life at 1 uM incubated for 60 min by LC-MS/MS method; assay type: ADME, subcellular
[13] = Half life in Sprague-Dawley rat assessed as BXN at 1 mg/kg, IV administered for 30 mins measured after 24 hrs post dose by LC-MS/MS analysis; assay type: ADME, organism-based; settings: in vivo, 24.5 h
[14] = Cmax in beagle dog at 1 mg/kg, IV administered for 30 mins measured after 24 hrs post dose by LC-MS/MS analysis; assay type: ADME, organism-based, Canis lupus familiaris; set-up: time 24.5 hrs, dose 1 mg/kg, route iv; settings: in vivo
[15] = AUClast in Sprague-Dawley rat at 1 mg/kg, IV administered for 30 mins measured after 24 hrs post dose by LC-MS/MS analysis; assay type: ADME, organism-based; set-up: dose 1 mg/kg, time 24.5 hrs, route iv; settings: in vivo
[16] = AUClast in beagle dog assessed as BXN at 1 mg/kg, IV administered for 30 mins measured after 24 hrs post dose by LC-MS/MS analysis; assay type: ADME, organism-based, Canis lupus familiaris; set-up: dose 1 mg/kg, time 24.5 hrs, route iv; settings: in vivo, 24.5 h
[17] = AUClast in Sprague-Dawley rat assessed as BXN at 1 mg/kg, IV administered for 30 mins measured after 24 hrs post dose by LC-MS/MS analysis; assay type: ADME, organism-based; set-up: dose 1 mg/kg, time 24.5 hrs, route iv; settings: in vivo, 24.5 h
[18] = AUClast in beagle dog at 5 mg/kg, IM administered for 30 mins measured after 24 hrs post dose by LC-MS/MS analysis; assay type: ADME, organism-based, Canis lupus familiaris; set-up: dose 5 mg/kg, time 24.5 hrs, route im; settings: in vivo
[19] = Prodrug conversion in Sprague-Dawley rat assessed as ratio of AUC for compound to BXN at 1 mg/kg,IV and measured after 60 mins by LC-MS/MS analysis; assay type: ADME, organism-based; settings: in vivo, 1 h
[20] = Cmax in beagle dog assessed as BXN at 5 mg/kg, IM administered for 30 mins measured after 24 hrs post dose by LC-MS/MS analysis; assay type: ADME, organism-based, Canis lupus familiaris; set-up: time 24.5 hrs, dose 5 mg/kg, route im; settings: in vivo, 24.5 h
[21] = AUClast in beagle dog assessed as BXN at 5 mg/kg, IM administered for 30 mins measured after 24 hrs post dose by LC-MS/MS analysis; assay type: ADME, organism-based, Canis lupus familiaris; set-up: time 24.5 hrs, dose 5 mg/kg, route im; settings: in vivo, 24.5 h
[22] = Cmax in beagle dog assessed as BXN at 1 mg/kg, IV administered for 30 mins measured after 24 hrs post dose by LC-MS/MS analysis; assay type: ADME, organism-based, Canis lupus familiaris; set-up: dose 1 mg/kg, time 24.5 hrs, route iv; settings: in vivo, 24.5 h
[23] = Cmax in Sprague-Dawley rat assessed as BXN at 1 mg/kg, IV administered for 30 mins measured after 24 hrs post dose by LC-MS/MS analysis; assay type: ADME, organism-based; set-up: time 24.5 hrs, dose 1 mg/kg, route iv; settings: in vivo, 24.5 h
[24] = Cmax in Sprague-Dawley rat at 1 mg/kg, IV administered for 30 mins measured after 24 hrs post dose by LC-MS/MS analysis; assay type: ADME, organism-based; set-up: time 24.5 hrs, dose 1 mg/kg, route iv; settings: in vivo
[25] = Prodrug conversion in Sprague-Dawley rat assessed as ratio of AUC for compound to BXN at 5 mg/kg,IM and measured after 60 mins by LC-MS/MS analysis; assay type: ADME, organism-based; settings: in vivo, 1 h
[26] = Half life in beagle dog assessed as BXN at 5 mg/kg, IM administered for 30 mins measured after 24 hrs post dose by LC-MS/MS analysis; assay type: ADME, organism-based, Canis lupus familiaris; settings: in vivo, 24.5 h
[27] = Prodrug conversion in beagle dog assessed as ratio of AUC for compound to BXN at 1 mg/kg,IV and measured after 60 mins by LC-MS/MS analysis; assay type: ADME, organism-based, Canis lupus familiaris; settings: in vivo, 1 h
[28] = Cmax in beagle dog at 5 mg/kg, IM administered for 30 mins measured after 24 hrs post dose by LC-MS/MS analysis; assay type: ADME, organism-based, Canis lupus familiaris; set-up: time 24.5 hrs, dose 5 mg/kg, route im; settings: in vivo
[29] = AUClast in beagle dog at 1 mg/kg, IV administered for 30 mins measured after 24 hrs post dose by LC-MS/MS analysis; assay type: ADME, organism-based, Canis lupus familiaris; set-up: time 24.5 hrs, dose 1 mg/kg, route iv; settings: in vivo

## CC(=O)[C@H]1CC[C@H]2[C@@H]3CC[C@H]4C[C@H](OC(=O)OCCN(C)C(=O)C(C)C)CC[C@]4(C)[C@H]3CC[C@]12C
[1]
  half-life at 1 µM: 0.0717 h
[2]
  half-life at 1 µM: 4.82 h

## CC(=O)[C@H]1CC[C@H]2[C@@H]3CC[C@H]4C[C@H](OC(=O)N(C)CCOC(=O)C(C)C)CC[C@]4(C)[C@H]3CC[C@]12C
[1]
  half-life at 1 µM: 0.015 h
[3]
  half-life at 1 µM: 0.0267 h
[2]
  half-life at 1 µM: 2.93 h
[4]
  half-life at 1 µM: 2.3 h
[5]
  half-life at 1 µM: 1.8 min

## CCCCCCCC(=O)O[C@@H]1CC[C@@]2(C)[C@@H](CC[C@@H]3[C@@H]2CC[C@]2(C)[C@@H](C(C)=O)CC[C@@H]32)C1
[1]
  half-life at 1 µM: 0.572 h
[2]
  half-life at 1 µM: > 5 h

## CCCCCC(=O)O[C@@H]1CC[C@@]2(C)[C@@H](CC[C@@H]3[C@@H]2CC[C@]2(C)[C@@H](C(C)=O)CC[C@@H]32)C1
[6]
  AUClast: 67.9 ng·h/mL
[7]
  Cmax: 130 ng/mL
[8]
  AUC(0-t) at 24.5 h: 716 ng·h/mL
[1]
  half-life at 1 µM: 0.382 h
[9]
  Ratio AUC: 0.09
[3]
  half-life at 1 µM: > 4.82 h
[2]
  half-life at 1 µM: > 5 h
[10]
  half-life: 7.94 h
[11]
  Cmax: 12.9 ng/mL
[12]
  half-life at 1 µM: 4.7 min

## CC(=O)[C@H]1CC[C@H]2[C@@H]3CC[C@H]4C[C@H](OC(=O)OCCOC(=O)C(C)C)CC[C@]4(C)[C@H]3CC[C@]12C
[6]
  AUClast: 390 ng·h/mL
[13]
  t1/2: 13.5 h
[14]
  Cmax: 590 ng/mL
[15]
  AUC(0-t) at 24.5 h: 9.03 ng·h/mL
[16]
  AUClast: 24 ng·h/mL
[17]
  AUClast: 256 ng·h/mL
[18]
  AUC(0-t) at 24.5 h: 36.5 ng·h/mL
[19]
  Ratio AUC: > 390
[20]
  Cmax: 11.3 ng/mL
[21]
  AUClast: 119 ng·h/mL
[1]
  half-life at 1 µM: 0.0417 h
[22]
  Cmax: 41.9 ng/mL
[23]
  Cmax: 119 ng/mL
[9]
  Ratio AUC: 3.3
[24]
  Cmax: 45.6 ng/mL
[3]
  half-life at 1 µM: < 0.05 h
[2]
  half-life at 1 µM: 1.5 h
[25]
  Ratio AUC: 28
[26]
  t1/2: 53.3 h
[4]
  half-life at 1 µM: 1.53 h
[10]
  half-life: 2.39 h
[27]
  Ratio AUC: 0.1
[28]
  Cmax: 31.4 ng/mL
[5]
  half-life at 1 µM: 2.5 min
[11]
  Cmax: 81.2 ng/mL
[29]
  AUC(0-t) at 24.5 h: 238 ng·h/mL

## CC(=O)OCCCCC(=O)O[C@@H]1CC[C@@]2(C)[C@@H](CC[C@@H]3[C@@H]2CC[C@]2(C)[C@@H](C(C)=O)CC[C@@H]32)C1
[1]
  half-life at 1 µM: 0.0133 h
[2]
  half-life at 1 µM: 1.78 h
[4]
  half-life at 1 µM: 1.45 h
[5]
  half-life at 1 µM: 1 min

## COC(=O)N(C)CCOC(=O)O[C@@H]1CC[C@@]2(C)[C@@H](CC[C@@H]3[C@@H]2CC[C@]2(C)[C@@H](C(C)=O)CC[C@@H]32)C1
[1]
  half-life at 1 µM: 0.0117 h
[2]
  half-life at 1 µM: 4.82 h
